Legend:
DPP1 = DPP1 (Homo sapiens (Human), UniProt P53634); experiment: DPP1 activity inhibition test on U937 cells; format: cell-based; conditions: substrate h-Gly-phe-AFC; for inhibition at 0.005 µM: U-937, 5 nM compound; for inhibition at 0.05 µM: U-937, 50 nM compound; for IC50: intracellular enzyme activity
Method: After incubation at 37° C. for 1 h, add h-Gly-phe-AFC (10 μL) to each well and start reaction.

rhCathepsin C/DPP1 = rhCathepsin C/DPP1 (Homo sapiens (Human), UniProt P53634); experiment: Test for inhibition of DPP1 enzyme activity; format: biochemical; conditions: recombinant human cathepsin C/DPP1; substrate Gly-Arg-AMC
Method: Recombinant human cathepsin, rhCathepsin C/DPP1, purchased from R&D systems
Gly-Arg-AMC (hydrOCHloride), purchased from Cayman chemical
• 1) Preparation and handling of compounds: Accurately weigh the compound and dissolve it in […] of DMSO to prepare a […] of the bulk, which is further diluted as required. • 2) Screening test: Dilute recombinant human cathepsin rhCathepsin C/DPP1 and recombinant human cathepsin rhCathepsin L with an activating buffer solution, and incubate at 37° C. for 60 min. Add 4 μL of test compound to the white well of the 384-well plate. Add 4 μL of the enzyme mixture after incubation to the white wells. Block the 384-well plate and allow to stand at room temperature for 30 min, and add 8 μL of 2-fold diluted Gly-Arg-AMC (hydrochloride). Block the 384-well plate and allow to stand at room temperature for 2 h. Prepare 4× stop solution and add 4 μL stop solution to white wells. Read fluorescence data on the fluorescence meter Victor Nivo35. • 3) Data analysis:
[…] using Prism Graphpad 8.0.

Sequence of DPP1 (P53634 25-463): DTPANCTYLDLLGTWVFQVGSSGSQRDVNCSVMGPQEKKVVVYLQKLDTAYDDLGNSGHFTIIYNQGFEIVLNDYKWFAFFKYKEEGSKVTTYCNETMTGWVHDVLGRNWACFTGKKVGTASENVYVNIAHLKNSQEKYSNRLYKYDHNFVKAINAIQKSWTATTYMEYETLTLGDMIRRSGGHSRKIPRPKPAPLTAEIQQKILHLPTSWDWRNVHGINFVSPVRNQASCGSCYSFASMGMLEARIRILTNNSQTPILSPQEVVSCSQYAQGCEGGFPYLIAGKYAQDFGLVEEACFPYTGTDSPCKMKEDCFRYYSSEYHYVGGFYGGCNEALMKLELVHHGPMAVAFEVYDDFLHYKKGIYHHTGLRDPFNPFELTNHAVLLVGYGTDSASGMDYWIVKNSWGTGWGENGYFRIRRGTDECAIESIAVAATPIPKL
Sequence of rhCathepsin C/DPP1 (P53634 25-134): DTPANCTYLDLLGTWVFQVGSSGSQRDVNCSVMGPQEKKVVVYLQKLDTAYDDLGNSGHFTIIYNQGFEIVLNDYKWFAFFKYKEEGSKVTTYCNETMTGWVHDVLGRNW
Sequence of rhCathepsin C/DPP1 (P53634 231-394): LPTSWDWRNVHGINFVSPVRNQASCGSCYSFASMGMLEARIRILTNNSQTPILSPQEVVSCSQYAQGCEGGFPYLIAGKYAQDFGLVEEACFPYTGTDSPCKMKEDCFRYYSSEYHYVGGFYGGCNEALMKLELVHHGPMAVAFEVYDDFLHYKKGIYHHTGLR
Sequence of rhCathepsin C/DPP1 (P53634 395-463): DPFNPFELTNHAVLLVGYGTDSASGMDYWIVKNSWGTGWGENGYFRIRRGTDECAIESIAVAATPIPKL

Row | Structure (SMILES) | inhibition at 0.005 µM (DPP1) | inhibition at 0.05 µM (DPP1) | IC50 (DPP1) | IC50 (rhCathepsin C/DPP1)
1 | C[C@H]1OC(=O)c2ccc(-c3ccc(C[C@@H](C#N)NC(=O)[C@@H]4CNCCCO4)[se]3)cc21 [Compound D126] | – | – | – | 10.8 nM
2 | C[C@H]1CNC[C@@H](C(=O)N[C@H](C#N)Cc2ccc(-c3ccc4c(c3)N(C)CCC4=O)cc2F)OC1 [Compound D124] | – | – | – | 11.2 nM
3 | CN1CC(n2c(=O)oc3ccc(-c4ccc(C[C@@H](C#N)NC(=O)[C@@H]5CNCCCO5)c(F)c4)cc32)C1 [Compound D67] | 30 to 75% | 75 to 100% | 32 nM | 0.18 nM
4 | Cn1cc(-n2c(=O)oc3ccc(-c4ccc(C[C@@H](C#N)NC(=O)[C@@H]5CNCCCO5)c(F)c4)cc32)cn1 [Compound D63] | 30 to 75% | 75 to 100% | 6.1 nM | 1.7 nM
5 | CC1CNC[C@@H](C(=O)N[C@H](C#N)Cc2ccc(-c3ccc4oc(=O)n(C)c4c3)cc2F)OC1 (some centres unmarked) [Compound D85] | 30 to 75% | 75 to 100% | 3 nM | 3.2 nM
6 | N#C[C@H](Cc1ccc(-c2ccc3c(c2)C2(CN(C4COC4)C2)OC3)cc1F)NC(=O)[C@@H]1CNCCCO1 [Compound D57] | 30 to 75% | 75 to 100% | 10 nM | 2.2 nM
7 | Cn1c(=O)oc2ccc(-c3ccc(C[C@@H](C#N)NC(=O)[C@@H]4CNC[C@@H](F)CO4)c(F)c3)cc21 [Compound D55] | – | – | 6.4 nM | –
8 | Cn1c(=O)oc2ccc(-c3ccc(C[C@@H](C#N)NC(=O)[C@@H]4CNCC5(CC5)CO4)nn3)cc21 [Compound D48] | 30 to 75% | 75 to 100% | 12 nM | –
9 | CN1CCC(n2c(=O)oc3ccc(-c4ccc(C[C@@H](C#N)NC(=O)[C@@H]5CNCCCO5)c(F)c4)cc32)C(F)(F)C1 (some centres unmarked) [Compound D100] | < 30% | 30 to 75% | – | –
10 | N#C[C@H](Cc1ccc(-c2cnc3c(c2)CCC3=O)cc1F)NC(=O)[C@@H]1CNCCCO1 [Compound D113] | < 30% | < 30% | – | –
11 | N#C[C@H](Cc1ccc(-c2ccc3oc(=O)n(CC4CCO4)c3c2)cc1F)NC(=O)[C@@H]1CNCCCO1 (some centres unmarked) [Compound D95] | < 30% | 75 to 100% | 17 nM | –
12 | CN1CCC2(CC1)OC(=O)c1cnc(-c3ccc(C[C@@H](C#N)NC(=O)[C@@H]4CNCCCO4)cc3)cc12 [Compound D38] | < 30% | 30 to 75% | – | –
13 | CS(=O)(=O)Cn1c(=O)oc2ccc(-c3ccc(C[C@@H](C#N)NC(=O)[C@@H]4CNCCCO4)c(F)c3)cc21 [Compound D80] | < 30% | < 30% | – | –
14 | CN1CCC2(CC1)OC(=O)c1ccc(-c3ccc(C[C@@H](C#N)NC(=O)[C@@H]4CNCCCO4)c(F)c3)cc12 [Compound D104] | < 30% | < 30% | – | –
15 | CN1CCC2(C=Cc3ccc(-c4ccc(C[C@@H](C#N)NC(=O)[C@@H]5CNCCCO5)c(F)c4)cc32)CC1 [Compound D90] | < 30% | 75 to 100% | – | –
16 | CN1CCC2(CC1)OC(=O)c1ccc(-c3ccc(C[C@@H](C#N)NC(=O)[C@@H]4CNCCCO4)cc3)nc12 [Compound D29] | 30 to 75% | 75 to 100% | – | –
17 | CN1CCC2(CC1)COc1ccc(-c3ccc(C[C@@H](C#N)NC(=O)[C@@H]4CNCCCO4)c(F)c3)cc12 [Compound D108] | < 30% | 75 to 100% | – | –
18 | N#C[C@H](Cc1ccc(-c2ccc3c(n2)C2(CCN(C4COC4)CC2)OC3=O)cc1)NC(=O)[C@@H]1CNCCCO1 [Compound D28] | 30 to 75% | 75 to 100% | – | –
19 | CN1CCC1Cn1c(=O)oc2ccc(-c3ccc(C[C@@H](C#N)NC(=O)[C@@H]4CNCCCO4)c(F)c3)cc21 (some centres unmarked) [Compound D97] | – | – | 109 nM | –
20 | Cn1c(=O)oc2ncc(-c3ccc(C[C@@H](C#N)NC(=O)[C@@H]4CNCCCO4)c(F)c3)nc21 [Compound D66] | < 30% | < 30% | – | –
21 | N#C[C@H](Cc1ccc(-c2ccc3oc(=O)n(C4CS(=O)(=O)C4)c3c2)cc1F)NC(=O)[C@@H]1CNCCCO1 [Compound D71] | < 30% | < 30% | – | –
22 | N#C[C@H](Cc1ccc(-c2ccc3c(n2)C2(CCN(C4COC4)CC2)OC3)cc1)NC(=O)[C@@H]1CNCCCO1 [Compound D30] | < 30% | 30 to 75% | – | –
23 | N#C[C@H](Cc1ccc(-c2ccc3c(c2)C2(CCN(C4COC4)C2)OC3)cc1F)NC(=O)[C@@H]1CNCCCO1 (some centres unmarked) [Compound D87] | < 30% | 75 to 100% | 12.8 nM | –

Other lines, results leading:

Row | inhibition at 0.005 µM (DPP1) | inhibition at 0.05 µM (DPP1) | IC50 (DPP1) | IC50 (rhCathepsin C/DPP1) | Structure (SMILES)
24 | 30 to 75% | 75 to 100% | 41 nM | 3.5 nM | CN1CC2(C1)OC(=O)c1ccc(-c3ccc(C[C@@H](C#N)NC(=O)[C@@H]4CNCCCO4)cc3)cc12 [Compound D19]
25 | 30 to 75% | 75 to 100% | 29 nM | 8 nM | N#C[C@H](Cc1ccc(-c2ccc3c(c2)C2(COC2)OC3=O)cc1)NC(=O)[C@@H]1CNCCCO1 [Compound D21]
26 | 30 to 75% | 75 to 100% | 2.9 nM | 0.72 nM | N#C[C@H](Cc1ccc(-c2ccc3c(c2)COC3=O)cc1F)NC(=O)[C@@H]1CNCC2(CC2)CO1 [Compound D78]
27 | – | – | – | 6.7 nM | CN1CCC(=O)c2ccc(-c3ccc(C[C@@H](C#N)NC(=O)[C@@H]4CNCCCO4)cc3)cc21 [Compound D125]
28 | < 30% | 30 to 75% | – | – | CO[C@H](C)Cn1c(=O)oc2ccc(-c3ccc(C[C@@H](C#N)NC(=O)[C@@H]4CNCCCO4)cc3)cc21 [Compound D35]
29 | < 30% | 75 to 100% | – | – | CN(C)CC1OC(=O)c2ccc(-c3ccc(C[C@@H](C#N)NC(=O)[C@@H]4CNCCCO4)c(F)c3)cc21 (some centres unmarked) [Compound D76]
30 | < 30% | 30 to 75% | – | – | CN1Cc2sc(-c3ccc(C[C@@H](C#N)NC(=O)[C@@H]4CNCCCO4)cc3)cc2C1=O [Compound D14]
31 | 30 to 75% | 75 to 100% | 6 nM | – | CC1(C)Cc2cc(-c3ccc(C[C@@H](C#N)NC(=O)[C@@H]4CNCCCO4)c(F)c3)ccc2C1=O [Compound D117]
32 | < 30% | 75 to 100% | – | – | CN1CCC2(C1)OC(=O)c1ccc(-c3ccc(C[C@@H](C#N)NC(=O)[C@@H]4CNCCCO4)c(F)c3)cc12 (some centres unmarked) [Compound D88]
33 | – | – | > 1000 nM | – | Cn1c(=O)oc2ccc(-c3ccc(C[C@@H](C#N)NC(=O)[C@@H]4CNCC(F)(F)CO4)cc3)cc21 [Compound D51]
34 | < 30% | < 30% | – | – | N#C[C@H](Cc1ccc(-c2cc3c(cc2F)C(=O)OC3)cc1F)NC(=O)[C@@H]1CNCCCO1 [Compound D79]
35 | < 30% | 30 to 75% | – | – | N#C[C@H](Cc1ccc(-c2ccc3c(c2)C(=O)OC3)cc1)NC(=O)[C@@H]1CNCCCO1 [Compound D45]
36 | < 30% | 30 to 75% | – | – | CO[C@@H](C)Cn1c(=O)oc2ccc(-c3ccc(C[C@@H](C#N)NC(=O)[C@@H]4CNCCCO4)cc3)cc21 [Compound D33]
37 | < 30% | 30 to 75% | – | – | N#C[C@H](Cc1ccc(-c2ccc3c(c2)C(=O)CO3)cc1)NC(=O)[C@@H]1CNCCCO1 [Compound D10]
38 | < 30% | 30 to 75% | – | – | N#C[C@H](Cc1ccc(-c2ccc3oc(=O)n(C4COC4)c3c2)cc1)NC(=O)[C@@H]1CNCCCO1 [Compound D03]
39 | < 30% | 30 to 75% | – | – | N#C[C@H](Cc1ccc(-c2ccc3c(c2)CC(=O)C3)cc1)NC(=O)[C@@H]1CNCCCO1 [Compound D08]
40 | 30 to 75% | 75 to 100% | 15 nM | – | CC1(C)OC(=O)c2ccc(-c3ccc(C[C@@H](C#N)NC(=O)[C@@H]4CNCCCO4)cc3)cc21 [Compound D42]
41 | 30 to 75% | 75 to 100% | – | – | N#C[C@H](Cc1ccc(-c2ccc3c(c2)C2(COC2)OC3)cc1)NC(=O)[C@@H]1CNCCCO1 [Compound D22]
42 | < 30% | < 30% | – | – | N#C[C@H](Cc1ccc(-c2ccc3nnnn3c2)cc1)NC(=O)[C@@H]1CNCCCO1 [Compound D06]
43 | – | 30 to 75% | – | – | CO/N=C1\CCc2cc(-c3ccc(C[C@@H](C#N)NC(=O)[C@@H]4CNCCCO4)c(F)c3)ccc21 [Compound D65]
44 | < 30% | < 30% | – | – | N#C[C@H](Cc1ccc(-c2ccc3nncn3c2)cc1)NC(=O)[C@@H]1CNCCCO1 [Compound D05]
45 | < 30% | 30 to 75% | – | – | CN1CCC2(C1)OCc1ccc(-c3ccc(C[C@@H](C#N)NC(=O)[C@@H]4CNCCCO4)cc3)cc12 (some centres unmarked) [Compound D36]
46 | < 30% | 30 to 75% | – | – | N#C[C@H](Cc1ccc(-c2ccc3c(c2)CC2(CC2)C3=O)cc1F)NC(=O)[C@@H]1CNCCCO1 [Compound D116]
47 | < 30% | 75 to 100% | 13.1 nM | – | CN1CC2(C1)OC(=O)c1ccc(-c3ccc(C[C@@H](C#N)NC(=O)[C@@H]4CNCCCO4)c(F)c3)cc12 [Compound D102]

From US20250101011A1, “PEPTIDYL NITRILE COMPOUND AND USE THEREOF” (SHANGHAI YIDIAN PHARMACEUTICAL TECHNOLOGY DEVELOPMENT CO., …, priority 2022, published 2025)
